5 compounds from article PMC8880783, “Structure and electron transfer pathways of an electron-bifurcating NiFe-hydrogenase” (Science Advances, 2022) can be followed below.

Assay [1] has as its target T1, NiFe-HydABCSL (Acetomicrobium mobile, UniProt I4BYB5).
T1 construct: gene Anamo_1678; native purification from A. mobile, untagged; dimer of heteropentamers (~500 kDa by SEC; 233 kDa per pentamer); with Electron-bifurcating NiFe-hydrogenase subunit HydA; Electron-bifurcating NiFe-hydrogenase subunit HydC (NADH:ubiquinone oxidoreductase 24 kD subunit); NiFe-hydrogenase small subunit HydS; NiFe-hydrogenase large subunit HydL
The assay is described as follows: H2-dependent bifurcation assay, simultaneous Fd and NAD reduction. The assay is classed as biochemical. The note with it: 100% H2, 40 µM A. mobile Fd, 10 µM FMN, 1 mM NAD.

The target of assay [2] is T1, NiFe-HydABCSL. The assay is described as follows: H2-dependent bifurcation assay, Fd reduction at […] nm. The format is biochemical. The note with it: 100% H2, 40 µM A. mobile Fd, 1 mM NAD, enzyme retains about 0.35 FMN per mole.
The target in assay [3] is T1, NiFe-HydABCSL. The assay is described as follows: cryo-EM structure of complex, […] Å. The note with it: 100 µM FMN with 100 µM NADH and 10 µM A. mobile Fd; site in HydB Rossmann fold, next to B1 [4Fe-4S] cluster; stacked on FMN in HydB; modelled as NAD(H). The assay is classed as binding.
The target of assay [4] is A. mobile NiFe-HydABCSL hydrogenase (heteropentamer) (A. mobile (endogenous in A. mobile cells)). The assay is described as follows: SEC; HiLoad Superdex 200 prepgrade XK 16/60, 25 mM tris pH 8.0, 300 mM NaCl, 5% glycerol, 2.5% trehalose, anaerobic; decamer to pentamers. For orientation: SEC sorts molecules by how far they enter the pores of the column.
The target is the same in assay [5]. In words: cryo-EM structure; single-particle cryo-EM of the enzyme as purified, flavin-free apo state, C2 symmetry, 3.2 Å.

For the compound `NC(=O)c1ccc[n+]([C@@H]2O[C@H](COP(=O)(O)OP(=O)(O)OC[C@H]3O[C@@H](n4cnc5c(N)ncnc54)[C@H](O)[C@@H]3O)[C@@H](O)[C@H]2O)c1` [NAD], the turnover result at NiFe-HydABCSL [1] is given as “NiFe-HydABCSL reduced the Fd only if NAD was also added”.

As to `Cc1cc2nc3c(=O)[nH]c(=O)nc-3n(C[C@H](O)[C@H](O)[C@H](O)COP(=O)(O)OP(=O)(O)OC[C@H]3O[C@@H](n4cnc5c(N)ncnc54)[C@H](O)[C@@H]3O)c2cc1C` [FAD], on NiFe-HydABCSL [2] (FAD concentration not given), the “% stimulation” value is ~ 10%. Consider `NC(=O)C1=CN([C@@H]2O[C@H](COP(=O)(O)OP(=O)(O)OC[C@H]3O[C@@H](n4cnc5c(N)ncnc54)[C@H](O)[C@@H]3O)[C@@H](O)[C@H]2O)C=CC1` [NADH], for which the structure entry at NiFe-HydABCSL [3] was “FMN and NADH had well-defined densities in HydB”. For “A. mobile NiFe-HydABCSL hydrogenase (heteropentamer) (complex)”, the stoichiometry N in assay [4] and in assay [5] was 2 each time.

As for `Cc1cc2nc3c(=O)[nH]c(=O)nc-3n(C[C@H](O)[C@H](O)[C@H](O)COP(=O)(O)O)c2cc1C` [FMN], the “% stimulation” value at NiFe-HydABCSL [2] (10 µM FMN) is ~ 35%.
